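Step 1: Grow cells in 96-well plates. Step 2: Expose to compound for 48 hours at 5 concentrations. Step 3: Interpolate endpoints linearly; if unreached, use highest concentration. GI50: concentration for 50% inhibition of growth. TGI: total growth inhibition.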

What all share (test): inhibition of tumour cell growth, NCI panel, 48 h
The test system of assay [1] is SR leukemia.
Assay [2] concerns HOP-62 NSCLC.
The subject of assay [3] is HCT-116 colon.
For assay [4], the system named is SN12C renal.
Assay [5] has as its system PC-3 prostate.
Assay [6] concerns IGROV1 ovarian.
For assay [7], the system named is SK-MEL-5 melanoma.
The subject of assay [8] is K-562 leukemia.
The subject of assay [9] is U251 CNS.
Assay [10] relates to HS 578T breast.

For `N#Cc1c(N)n(C2OC(CO)C(O)C2O)c2ncnc(N)c12` (stereo not drawn), the TGI is 0.0474 µM in assay [1]; 2.39 µM in assay [2]; > 7.59 µM in assay [3]; 0.856 µM in assay [4]; 0.578 µM in assay [5]; > 100 µM in assay [6]. For the same molecule, the TGI in [7] is 0.279 µM; in assay [8], > 20.2 µM; in [9], > 78.2 µM; in [10] it was 2.16 µM.
Take `COc1ccc2c3c(ccc2c1)NC(C(=O)O)CC3` (stereo not drawn): the TGI in [1] was 58.4 µM; in assay [2] it was > 100 µM; in [3], > 100 µM; in [4], > 100 µM; in [5], > 100 µM; in assay [6], > 100 µM. Besides, the TGI was 64.7 µM in assay [7], > 100 µM in assay [8], > 100 µM in assay [9] and > 100 µM in [10].
Turning to `COc1ccc2c(c1)O/C(=C\c1ccc([N+](=O)[O-])o1)C2=O`, the GI50 in assay [1] was 178 nM; in assay [2], 2050 nM; in assay [3] it was 246 nM; in assay [4], 2450 nM; in assay [5], 2140 nM; in assay [6], 1350 nM. In addition, the GI50 in [7] was 1560 nM; in assay [8] it was 352 nM; in [9], 1980 nM; in assay [10] it was 2360 nM. Moreover, the TGI is 0.964 µM in assay [1]; 6.56 µM in assay [2]; 0.747 µM in [3]; > 100 µM in assay [4]; > 25.5 µM in assay [5]; 7.3 µM in assay [6]. The TGI in assay [7] was found to be 3.08 µM; in assay [8], 1.91 µM; in assay [9], 6.56 µM; in assay [10] it was 7.32 µM.
`Nc1nc(=O)c2[nH]cnc2n1O`: the TGI in assay [1], in assay [2], in [3], in assay [4], in assay [5] and in assay [6] was > 100 µM throughout. Also, the TGI in assay [7], in assay [8], in [9] and in assay [10] was > 100 µM each time.
For the molecule `OCCNC(=S)Nc1ccc(-c2nc(N3C[C@H]4CC[C@@H](C3)O4)c3cccn3n2)cc1`, the GI50 in assay [1] was 82 nM; in assay [2] it was 32.4 nM; in [3], 357 nM; in assay [4] it was 61.7 nM; in [5], 28.4 nM; in assay [6] it was 16.5 nM. For the same molecule, the GI50 in assay [7] was 66.8 nM; in assay [8] it was 266 nM; in [9], 114 nM; in assay [10], 22.1 nM. The TGI in [1] is > 38 µM; in assay [2], 0.662 µM; in assay [3], 21.7 µM; in assay [4], 16.9 µM; in assay [5], 8.13 µM; in assay [6], 0.15 µM. Also, the TGI in assay [7] is 0.642 µM; in assay [8], > 37.6 µM; in [9], 11.6 µM; in assay [10] it was 0.248 µM.
As to `COc1ccc(Nc2[nH]n(C3=Nc4ccccc4Sc4ccccc43)c(=O)c2C#N)cc1`, the GI50 is 518 nM in assay [1]; 3060 nM in [2]; 1330 nM in assay [3]; 2360 nM in [4]; 676 nM in [5]; 2790 nM in [6]. The GI50 is 396 nM in assay [7], 2500 nM in assay [9] and 1980 nM in assay [10]. Also, the TGI in [1] was > 100 µM; in assay [2], > 100 µM; in assay [3], 12 µM; in assay [4], > 100 µM; in [5], > 100 µM; in assay [6], > 100 µM. The TGI is 1.48 µM in [7], 43.3 µM in assay [9] and > 100 µM in assay [10].
In the case of `COC1=CC(=O)c2c(O)c3c(c(O)c2C1=O)OC1(Oc2c(cc4cc(C)oc(=O)c4c2O)CC1O)C3O` (stereo not drawn), the TGI in assay [1] is > 100 µM; in [2], > 100 µM; in [3], > 100 µM; in [4], 49.3 µM; in assay [5], > 100 µM; in [6] it was 66.5 µM. Moreover, the TGI in assay [7] was 95 µM; in [8], > 100 µM; in assay [9] it was > 100 µM; in assay [10] it was > 100 µM.
Take `COc1ccc(-c2c(-c3cc4c(c(OC)c3OC)OCO4)noc2N)cc1`: the GI50 in assay [1] was 37.6 nM; in assay [2] it was 457 nM; in [3] it was 340 nM; in assay [4], 792 nM; in assay [5], 321 nM; in assay [6], 1100 nM. Besides, the GI50 in [7] is 311 nM; in assay [8], 68.8 nM; in [9], 417 nM; in assay [10] it was 365 nM. The TGI in assay [1] was 69.8 µM; in assay [2], > 100 µM; in assay [3] it was 15.9 µM; in assay [4] it was > 100 µM; in [5], > 100 µM; in assay [6], > 100 µM. Further, the TGI is > 69.4 µM in assay [7], > 100 µM in [8], > 100 µM in [9] and > 100 µM in assay [10].
In the case of `Cc1ccccc1NC(=O)N/C(N)=N/c1nc(C)c(C)s1`, the GI50 was 43.8 nM in assay [1]; 404 nM in [2]; 321 nM in [3]; 1230 nM in assay [4]; 395 nM in [5]; 350 nM in assay [6]. The GI50 in [7] is 282 nM; in assay [8], 42.9 nM; in [9], 305 nM; in assay [10] it was 488 nM. Further, the TGI in [1] was > 100 µM; in [2], > 65.6 µM; in [3] it was > 75.9 µM; in assay [4] it was > 100 µM; in assay [5] it was > 100 µM; in [6], > 100 µM. Besides, the TGI in assay [7] was > 100 µM; in [8], > 100 µM; in [9] it was > 46.6 µM; in [10], > 100 µM.

The values above are taken from PubChem BioAssay (NCI).
